From US20070049564A1 (Wyeth, priority 2005, published 2007)
≈ marks a conversion by molar mass, not a printed value. Where two headings read alike, the source gives them in different places.

Legend:
Experiment in all cases: MIC, broth microdilution
E. coli GC 2233 = details: Escherichia coli
E. coli GC 2270 = details: Escherichia coli
E. coli GC 2271 = details: Escherichia coli
E. coli GC 2272 = details: Escherichia coli
E. coli GC 4560 = details: Escherichia coli
E. coli GC 6465 = details: Escherichia coli
E. coli GC 3226 = details: Escherichia coli
E. coli GC 2203 = details: Escherichia coli
E. coli GC 1073 = details: Escherichia coli
P. aeruginosa GC 2214 = details: Pseudomonas aeruginosa
S. aureus GC 1131 = details: Staphylococcus aureus
S. aureus GC 6467 = details: Staphylococcus aureus
S. aureus GC 1079 = details: Staphylococcus aureus
S. aureus GC 6335 = details: Staphylococcus aureus
S. aureus GC 6469 = details: Staphylococcus aureus
S. epidermidis GC 4935 = details: Staphylococcus epidermidis
E. faecalis GC 2265 = details: Enterococcus faecalis
E. faecalis GC 2267 = details: Enterococcus faecalis
E. faecium GC 2243 = details: Enterococcus faecium
c. albicans GC 3066 = system: c. albicans GC 3066

MIC (E. coli GC 2233; GC2233, read-out: MINIMAL INHIBITORY CONCENTRATION MIC, pre-incubated in Mouse Serum): 1 µg/mL (≈ 1.21 µM) | MIC (E. coli GC 2233; GC2233, read-out: MINIMAL INHIBITORY CONCENTRATION MIC, pre-incubated in Water): > 64 µg/mL | MIC (E. coli GC 2270; GC2270, read-out: MINIMAL INHIBITORY CONCENTRATION MIC, pre-incubated in Mouse Serum): 0.5 µg/mL (≈ 0.605 µM) | MIC (E. coli GC 2270; GC2270, read-out: MINIMAL INHIBITORY CONCENTRATION MIC, pre-incubated in Water): > 64 µg/mL | MIC (E. coli GC 2271; GC2271, read-out: MINIMAL INHIBITORY CONCENTRATION MIC, pre-incubated in Mouse Serum): 0.5 µg/mL (≈ 0.605 µM) | MIC (E. coli GC 2271; GC2271, read-out: MINIMAL INHIBITORY CONCENTRATION MIC, pre-incubated in Water): > 64 µg/mL | MIC (E. coli GC 2272; GC2272, read-out: MINIMAL INHIBITORY CONCENTRATION MIC, pre-incubated in Mouse Serum): 1 µg/mL (≈ 1.21 µM) | MIC (E. coli GC 2272; GC2272, read-out: MINIMAL INHIBITORY CONCENTRATION MIC, pre-incubated in Water): > 64 µg/mL | MIC (E. coli GC 4560; GC4560, read-out: MINIMAL INHIBITORY CONCENTRATION MIC, pre-incubated in Mouse Serum): 0.25 µg/mL (≈ 0.303 µM) | MIC (E. coli GC 4560; GC4560, read-out: MINIMAL INHIBITORY CONCENTRATION MIC, pre-incubated in Water): 64 µg/mL (≈ 77.5 µM) | MIC (E. coli GC 6465; GC6465, read-out: MINIMAL INHIBITORY CONCENTRATION MIC, pre-incubated in Mouse Serum): 8 µg/mL (≈ 9.69 µM) | MIC (E. coli GC 6465; GC6465, read-out: MINIMAL INHIBITORY CONCENTRATION MIC, pre-incubated in Water): > 64 µg/mL | MIC (E. coli GC 3226; GC3226, read-out: MINIMAL INHIBITORY CONCENTRATION MIC, pre-incubated in Mouse Serum): 1 µg/mL (≈ 1.21 µM) | MIC (E. coli GC 3226; GC3226, read-out: MINIMAL INHIBITORY CONCENTRATION MIC, pre-incubated in Water): > 64 µg/mL | MIC (E. coli GC 2203; GC2203, read-out: MINIMAL INHIBITORY CONCENTRATION MIC, pre-incubated in Mouse Serum): 0.5 µg/mL (≈ 0.605 µM) | MIC (E. coli GC 2203; GC2203, read-out: MINIMAL INHIBITORY CONCENTRATION MIC, pre-incubated in Water): > 64 µg/mL | MIC (E. coli GC 1073; GC1073, read-out: MINIMAL INHIBITORY CONCENTRATION MIC, pre-incubated in Mouse Serum): 1 µg/mL (≈ 1.21 µM) | MIC (E. coli GC 1073; GC1073, read-out: MINIMAL INHIBITORY CONCENTRATION MIC, pre-incubated in Water): > 64 µg/mL | MIC (P. aeruginosa GC 2214; GC2214, read-out: MINIMAL INHIBITORY CONCENTRATION MIC, pre-incubated in Mouse Serum): 16 µg/mL (≈ 19.4 µM) | MIC (P. aeruginosa GC 2214; GC2214, read-out: MINIMAL INHIBITORY CONCENTRATION MIC, pre-incubated in Water): > 64 µg/mL | MIC (S. aureus GC 1131; GC1131, read-out: MINIMAL INHIBITORY CONCENTRATION MIC, pre-incubated in Mouse Serum): 1 µg/mL (≈ 1.21 µM) | MIC (S. aureus GC 1131; GC1131, read-out: MINIMAL INHIBITORY CONCENTRATION MIC, pre-incubated in Water): 2 µg/mL (≈ 2.42 µM) | MIC (S. aureus GC 6467; GC6467, read-out: MINIMAL INHIBITORY CONCENTRATION MIC, pre-incubated in Mouse Serum): 4 µg/mL (≈ 4.84 µM) | MIC (S. aureus GC 6467; GC6467, read-out: MINIMAL INHIBITORY CONCENTRATION MIC, pre-incubated in Water): > 64 µg/mL | MIC (S. aureus GC 1079; GC1079, read-out: MINIMAL INHIBITORY CONCENTRATION MIC, pre-incubated in Mouse Serum): 2 µg/mL (≈ 2.42 µM) | MIC (S. aureus GC 1079; GC1079, read-out: MINIMAL INHIBITORY CONCENTRATION MIC, pre-incubated in Water): 64 µg/mL (≈ 77.5 µM) | MIC (S. aureus GC 6335; GC6335, read-out: MINIMAL INHIBITORY CONCENTRATION MIC, pre-incubated in Mouse Serum): 2 µg/mL (≈ 2.42 µM) | MIC (S. aureus GC 6335; GC6335, read-out: MINIMAL INHIBITORY CONCENTRATION MIC, pre-incubated in Water): 16 µg/mL (≈ 19.4 µM) | MIC (S. aureus GC 6469; GC6469, read-out: MINIMAL INHIBITORY CONCENTRATION MIC, pre-incubated in Mouse Serum): 4 µg/mL (≈ 4.84 µM) | MIC (S. aureus GC 6469; GC6469, read-out: MINIMAL INHIBITORY CONCENTRATION MIC, pre-incubated in Water): > 64 µg/mL | MIC (S. epidermidis GC 4935; GC4935, read-out: MINIMAL INHIBITORY CONCENTRATION MIC, pre-incubated in Mouse Serum): 2 µg/mL (≈ 2.42 µM) | MIC (S. epidermidis GC 4935; GC4935, read-out: MINIMAL INHIBITORY CONCENTRATION MIC, pre-incubated in Water): 16 µg/mL (≈ 19.4 µM) | MIC (E. faecalis GC 2265; GC2265, read-out: MINIMAL INHIBITORY CONCENTRATION MIC, pre-incubated in Mouse Serum): 2 µg/mL (≈ 2.42 µM) | MIC (E. faecalis GC 2265; GC2265, read-out: MINIMAL INHIBITORY CONCENTRATION MIC, pre-incubated in Water): 32 µg/mL (≈ 38.7 µM) | MIC (E. faecalis GC 2267; GC2267, read-out: MINIMAL INHIBITORY CONCENTRATION MIC, pre-incubated in Mouse Serum): 4 µg/mL (≈ 4.84 µM) | MIC (E. faecalis GC 2267; GC2267, read-out: MINIMAL INHIBITORY CONCENTRATION MIC, pre-incubated in Water): 64 µg/mL (≈ 77.5 µM) | MIC (E. faecium GC 2243; GC2243, read-out: MINIMAL INHIBITORY CONCENTRATION MIC, pre-incubated in Mouse Serum): 0.5 µg/mL (≈ 0.605 µM) | MIC (E. faecium GC 2243; GC2243, read-out: MINIMAL INHIBITORY CONCENTRATION MIC, pre-incubated in Water): 2 µg/mL (≈ 2.42 µM) | MIC (c. albicans GC 3066; Candida albicans, GC3066, read-out: MINIMAL INHIBITORY CONCENTRATION MIC): > 64 µg/mL | MINIMAL INHIBITORY CONCENTRATION MIC (c. albicans GC 3066; pre-incubated in Water): >64 UG/ML
Compound: CCCN(CC(=O)Nc1cc(N(C)C)c2c(c1O)C(=O)C1=C(O)[C@]3(O)C(=O)C(C(N)=O)=C(O)[C@@H](N(C)C)[C@@H]3C[C@@H]1C2)C(=O)OCOC(=O)c1ccc(-c2ccccc2)cc1 [Example 24, ({[(2-{[(5aR,6aS,7S,10aS)-9-(aminocarbonyl)-4,7-bis(dimethylamino)-1,8,10a,11-tetrahydroxy-10,12-dioxo-5,5a,6,6a,7,10,10a,12-octahydrotetracen-2-yl]amino}-2-oxoethyl)(propyl)amino]carbonyl}oxy)methyl 1,1′-biphenyl-4-carboxylate]
